Experimental data: ChEMBL document CHEMBL1201862, “PubChem BioAssay data set” (2004)
The source made the active and inactive calls.

Assays:
HEK293 = experiment: cells; assay type: functional, cell-based; conditions: Homo sapiens
[1] = target: T1, Nuclear receptor subfamily 0 group B member 1 (Homo sapiens, UniProt P51843); experiment: Luminescence-based cell-based high throughput dose response assay for inhibitors of the orphan nuclear receptor subfamily 0, group B, member 1 (DAX1; NR0B1). [Related pubchem assays (depositor defined):AID504766, AID504790]; assay type: functional
T1 sequence (P51843 whole entry): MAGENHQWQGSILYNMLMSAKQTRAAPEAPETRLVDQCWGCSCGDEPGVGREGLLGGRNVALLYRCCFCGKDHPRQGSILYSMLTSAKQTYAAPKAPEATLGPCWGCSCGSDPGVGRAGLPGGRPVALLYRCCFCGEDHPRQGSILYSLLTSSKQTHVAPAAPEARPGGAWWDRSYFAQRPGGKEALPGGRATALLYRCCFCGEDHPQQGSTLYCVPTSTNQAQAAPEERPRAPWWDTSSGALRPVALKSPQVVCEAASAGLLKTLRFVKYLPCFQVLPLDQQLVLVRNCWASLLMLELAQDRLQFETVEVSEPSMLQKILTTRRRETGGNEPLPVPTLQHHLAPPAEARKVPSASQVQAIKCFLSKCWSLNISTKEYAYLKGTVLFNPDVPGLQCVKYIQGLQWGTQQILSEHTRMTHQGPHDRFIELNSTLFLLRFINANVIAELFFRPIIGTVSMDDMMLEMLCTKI

Cysteine protease ATG4B = target: T2, Cysteine protease ATG4B (Homo sapiens, UniProt Q9Y4P1); assay type: functional;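 further: Fluorescence-based dose-response confirmation assay measuring inhibition of ATG4B activity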
T2 sequence (Q9Y4P1 whole entry): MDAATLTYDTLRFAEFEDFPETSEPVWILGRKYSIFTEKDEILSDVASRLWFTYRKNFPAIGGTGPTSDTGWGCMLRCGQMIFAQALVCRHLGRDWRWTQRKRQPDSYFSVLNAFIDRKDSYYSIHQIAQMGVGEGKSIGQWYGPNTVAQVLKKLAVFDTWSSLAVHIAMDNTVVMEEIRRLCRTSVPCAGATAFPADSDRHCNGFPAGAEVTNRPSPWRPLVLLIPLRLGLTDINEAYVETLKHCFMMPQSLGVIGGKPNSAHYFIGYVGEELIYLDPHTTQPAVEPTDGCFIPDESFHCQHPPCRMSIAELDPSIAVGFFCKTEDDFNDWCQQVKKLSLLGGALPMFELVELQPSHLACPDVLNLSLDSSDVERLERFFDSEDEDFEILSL

Phospholipase A2 = Phospholipase A2 (Homo sapiens, UniProt P04054); assay type: functional;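 further: confirmatory dose-response counterscreen on phospholipase A2, testing hits that came from an ultra-high-throughput screen for ATG4B inhibitors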
Chain of Phospholipase A2 (P04054 whole entry): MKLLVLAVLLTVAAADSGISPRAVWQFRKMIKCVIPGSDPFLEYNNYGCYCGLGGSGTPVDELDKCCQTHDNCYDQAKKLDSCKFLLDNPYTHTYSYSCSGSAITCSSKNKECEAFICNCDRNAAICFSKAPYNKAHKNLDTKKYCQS

[2] = target: Induced myeloid leukemia cell differentiation protein Mcl-1 (Homo sapiens, UniProt Q07820); assay type: functional
Chain of Induced myeloid leukemia cell differentiation protein Mcl-1 (Q07820 whole entry, the tested form may be a part): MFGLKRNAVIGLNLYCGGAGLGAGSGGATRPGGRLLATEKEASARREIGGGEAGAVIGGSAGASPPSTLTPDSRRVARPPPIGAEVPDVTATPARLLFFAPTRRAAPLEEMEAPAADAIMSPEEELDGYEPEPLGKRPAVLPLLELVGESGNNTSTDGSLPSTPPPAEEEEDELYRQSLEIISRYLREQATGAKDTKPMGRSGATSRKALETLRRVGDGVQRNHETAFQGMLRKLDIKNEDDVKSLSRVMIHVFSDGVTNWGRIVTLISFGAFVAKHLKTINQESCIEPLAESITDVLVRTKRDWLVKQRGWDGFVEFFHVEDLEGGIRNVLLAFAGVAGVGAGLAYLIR

CHO = experiment: cytotoxicity in TLR9-MyD88 CHO cells, dose response, cytotoxicity control for TLR9-MyD88 binding inhibitor project, cell-based, luminescence (AID 588339); assay type: functional, hamster; conditions: Cricetulus griseus;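 further: CHO cells stably coexpressing TLR9 and MyD88 fusions from primary screen; compound exposure lasted 48 hours before viability readout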
[3] = target: Protein-tyrosine kinase 2-beta (Homo sapiens, UniProt Q14289);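 further: potency of inhibitors of PYK2 kinase phosphorylation of poly-GT substrate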
Chain of Protein-tyrosine kinase 2-beta (Q14289 whole entry): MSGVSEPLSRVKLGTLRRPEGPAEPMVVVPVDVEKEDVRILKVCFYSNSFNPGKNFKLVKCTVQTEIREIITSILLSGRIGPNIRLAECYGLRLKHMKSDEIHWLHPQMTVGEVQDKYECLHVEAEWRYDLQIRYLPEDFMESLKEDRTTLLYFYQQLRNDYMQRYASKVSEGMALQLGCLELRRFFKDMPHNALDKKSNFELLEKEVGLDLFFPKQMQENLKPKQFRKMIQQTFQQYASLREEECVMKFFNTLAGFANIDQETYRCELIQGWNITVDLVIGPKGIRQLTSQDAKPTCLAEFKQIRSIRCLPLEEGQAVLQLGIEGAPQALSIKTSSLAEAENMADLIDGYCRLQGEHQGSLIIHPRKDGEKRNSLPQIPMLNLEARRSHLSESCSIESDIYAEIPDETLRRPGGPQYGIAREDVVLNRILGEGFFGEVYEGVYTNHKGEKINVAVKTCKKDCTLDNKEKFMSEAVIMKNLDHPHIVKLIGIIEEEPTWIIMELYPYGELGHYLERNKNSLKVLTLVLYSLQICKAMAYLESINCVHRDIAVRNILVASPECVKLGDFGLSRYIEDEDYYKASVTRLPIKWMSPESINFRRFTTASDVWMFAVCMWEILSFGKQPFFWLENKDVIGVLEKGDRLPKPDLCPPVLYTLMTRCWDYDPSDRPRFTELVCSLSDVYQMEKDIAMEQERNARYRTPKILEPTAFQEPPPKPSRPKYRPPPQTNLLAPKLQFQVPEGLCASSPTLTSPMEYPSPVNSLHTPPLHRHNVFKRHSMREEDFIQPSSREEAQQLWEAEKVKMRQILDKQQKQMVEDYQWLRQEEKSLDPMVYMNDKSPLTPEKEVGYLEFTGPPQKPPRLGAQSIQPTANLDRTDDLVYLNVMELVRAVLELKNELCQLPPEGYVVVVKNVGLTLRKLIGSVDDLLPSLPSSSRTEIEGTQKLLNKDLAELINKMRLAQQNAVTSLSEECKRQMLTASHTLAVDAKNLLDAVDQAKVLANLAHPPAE

Nonstructural protein 1 = Nonstructural protein 1 (Influenza A virus, UniProt Q194T2); assay type: functional, Influenza A virus (A/California/07/2009(H1N1))
Chain of Nonstructural protein 1 (Q194T2 whole entry): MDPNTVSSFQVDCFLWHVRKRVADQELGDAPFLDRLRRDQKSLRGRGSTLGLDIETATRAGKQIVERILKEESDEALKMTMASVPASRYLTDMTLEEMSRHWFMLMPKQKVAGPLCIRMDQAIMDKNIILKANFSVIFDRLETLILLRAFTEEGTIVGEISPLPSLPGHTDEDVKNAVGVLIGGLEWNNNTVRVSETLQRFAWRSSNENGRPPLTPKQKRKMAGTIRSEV

HT-1080 = experiment: cytotoxicity in HT1080 fibrosarcoma cells, cell-based, fluorescence readout (AID 620); assay type: functional; conditions: Homo sapiens
[4] = target: Luciferin 4-monooxygenase (Photinus pyralis, UniProt P08659); experiment: Counter Screen for Luciferase-based Assay Positives. [Related pubchem assays: 620, 618, 411 ]
Chain of Luciferin 4-monooxygenase (P08659 whole entry): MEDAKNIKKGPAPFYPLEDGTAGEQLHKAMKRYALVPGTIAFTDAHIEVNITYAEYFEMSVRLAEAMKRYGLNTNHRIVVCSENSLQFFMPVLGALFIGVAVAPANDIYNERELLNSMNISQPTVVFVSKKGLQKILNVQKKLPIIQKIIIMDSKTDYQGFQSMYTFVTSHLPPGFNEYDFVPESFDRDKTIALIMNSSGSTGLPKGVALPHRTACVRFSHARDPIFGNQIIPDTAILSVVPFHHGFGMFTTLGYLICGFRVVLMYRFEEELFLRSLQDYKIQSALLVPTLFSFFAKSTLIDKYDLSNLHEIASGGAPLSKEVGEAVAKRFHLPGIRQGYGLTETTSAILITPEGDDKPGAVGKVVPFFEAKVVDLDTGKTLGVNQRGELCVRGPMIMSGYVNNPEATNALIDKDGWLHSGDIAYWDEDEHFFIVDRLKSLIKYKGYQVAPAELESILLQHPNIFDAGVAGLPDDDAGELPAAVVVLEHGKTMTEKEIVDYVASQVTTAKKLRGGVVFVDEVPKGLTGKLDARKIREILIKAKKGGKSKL

[5] = target: T3, Sentrin-specific protease 6 (Homo sapiens, UniProt Q9GZR1); assay type: functional;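 further: Luminescence-based dose-response confirmatory assay of SENP6 inhibition, following up an ultra-high-throughput screen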
T3 sequence (Q9GZR1 whole entry): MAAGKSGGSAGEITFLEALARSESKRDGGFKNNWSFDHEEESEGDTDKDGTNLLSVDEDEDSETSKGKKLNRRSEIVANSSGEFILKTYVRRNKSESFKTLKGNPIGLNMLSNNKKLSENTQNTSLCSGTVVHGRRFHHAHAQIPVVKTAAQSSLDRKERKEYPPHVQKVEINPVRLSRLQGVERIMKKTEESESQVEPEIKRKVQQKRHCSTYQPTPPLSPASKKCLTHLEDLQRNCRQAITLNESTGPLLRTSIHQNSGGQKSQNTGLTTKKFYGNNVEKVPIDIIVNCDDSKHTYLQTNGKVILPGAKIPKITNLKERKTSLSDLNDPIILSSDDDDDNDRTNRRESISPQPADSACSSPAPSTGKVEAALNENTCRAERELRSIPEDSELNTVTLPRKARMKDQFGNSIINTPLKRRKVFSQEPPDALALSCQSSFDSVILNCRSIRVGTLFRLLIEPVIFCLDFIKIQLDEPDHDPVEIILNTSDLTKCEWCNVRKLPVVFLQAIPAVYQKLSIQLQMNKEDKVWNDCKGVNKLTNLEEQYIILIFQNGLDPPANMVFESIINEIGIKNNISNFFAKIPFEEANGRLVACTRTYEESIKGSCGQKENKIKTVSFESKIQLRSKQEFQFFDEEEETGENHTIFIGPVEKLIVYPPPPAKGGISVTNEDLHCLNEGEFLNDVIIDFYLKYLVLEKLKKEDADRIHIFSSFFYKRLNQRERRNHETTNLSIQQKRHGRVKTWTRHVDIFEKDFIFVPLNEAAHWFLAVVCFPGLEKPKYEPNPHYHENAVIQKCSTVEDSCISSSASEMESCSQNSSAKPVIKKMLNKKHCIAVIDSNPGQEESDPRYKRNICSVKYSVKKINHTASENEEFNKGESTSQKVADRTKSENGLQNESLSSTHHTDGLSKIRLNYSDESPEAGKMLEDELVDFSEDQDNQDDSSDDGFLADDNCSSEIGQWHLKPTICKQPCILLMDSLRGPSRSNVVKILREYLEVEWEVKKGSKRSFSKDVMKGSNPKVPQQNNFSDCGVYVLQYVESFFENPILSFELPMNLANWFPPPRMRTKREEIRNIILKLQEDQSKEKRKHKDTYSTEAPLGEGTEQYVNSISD

[6] = target: T4, Sentrin-specific protease 8 (Homo sapiens, UniProt Q96LD8); assay type: functional;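 further: luminescence read-out of SENP8 inhibition, dose-response confirmation following an ultra-high-throughput screen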
T4 sequence (Q96LD8 whole entry): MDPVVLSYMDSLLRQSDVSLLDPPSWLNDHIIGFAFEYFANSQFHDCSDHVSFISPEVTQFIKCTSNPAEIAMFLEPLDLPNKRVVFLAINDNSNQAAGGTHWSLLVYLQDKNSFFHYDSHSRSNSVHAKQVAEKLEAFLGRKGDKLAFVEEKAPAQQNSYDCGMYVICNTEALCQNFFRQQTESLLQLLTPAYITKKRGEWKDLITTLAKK

Caspase-3 = target: T5, Caspase-3 (Homo sapiens, UniProt P42574); assay type: functional;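 further: Dose-response selectivity test against caspase-3 for candidate inhibitors of sentrin-specific proteases (SENPs)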
T5 sequence (P42574 whole entry): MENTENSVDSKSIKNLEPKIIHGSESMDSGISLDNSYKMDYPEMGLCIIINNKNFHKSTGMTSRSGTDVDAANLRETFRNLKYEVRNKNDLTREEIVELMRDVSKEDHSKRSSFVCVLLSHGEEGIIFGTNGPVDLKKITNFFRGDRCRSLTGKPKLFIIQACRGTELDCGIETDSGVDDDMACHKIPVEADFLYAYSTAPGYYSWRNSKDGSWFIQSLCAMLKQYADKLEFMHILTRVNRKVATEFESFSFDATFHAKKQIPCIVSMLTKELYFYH

[7] = target: T6, Sentrin-specific protease 7 (Homo sapiens, UniProt Q9BQF6); assay type: functional;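 further: Luminescence-based dose-response confirmation of ultra-high-throughput screening hits, measuring inhibition of SENP7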
T6 sequence (Q9BQF6 whole entry): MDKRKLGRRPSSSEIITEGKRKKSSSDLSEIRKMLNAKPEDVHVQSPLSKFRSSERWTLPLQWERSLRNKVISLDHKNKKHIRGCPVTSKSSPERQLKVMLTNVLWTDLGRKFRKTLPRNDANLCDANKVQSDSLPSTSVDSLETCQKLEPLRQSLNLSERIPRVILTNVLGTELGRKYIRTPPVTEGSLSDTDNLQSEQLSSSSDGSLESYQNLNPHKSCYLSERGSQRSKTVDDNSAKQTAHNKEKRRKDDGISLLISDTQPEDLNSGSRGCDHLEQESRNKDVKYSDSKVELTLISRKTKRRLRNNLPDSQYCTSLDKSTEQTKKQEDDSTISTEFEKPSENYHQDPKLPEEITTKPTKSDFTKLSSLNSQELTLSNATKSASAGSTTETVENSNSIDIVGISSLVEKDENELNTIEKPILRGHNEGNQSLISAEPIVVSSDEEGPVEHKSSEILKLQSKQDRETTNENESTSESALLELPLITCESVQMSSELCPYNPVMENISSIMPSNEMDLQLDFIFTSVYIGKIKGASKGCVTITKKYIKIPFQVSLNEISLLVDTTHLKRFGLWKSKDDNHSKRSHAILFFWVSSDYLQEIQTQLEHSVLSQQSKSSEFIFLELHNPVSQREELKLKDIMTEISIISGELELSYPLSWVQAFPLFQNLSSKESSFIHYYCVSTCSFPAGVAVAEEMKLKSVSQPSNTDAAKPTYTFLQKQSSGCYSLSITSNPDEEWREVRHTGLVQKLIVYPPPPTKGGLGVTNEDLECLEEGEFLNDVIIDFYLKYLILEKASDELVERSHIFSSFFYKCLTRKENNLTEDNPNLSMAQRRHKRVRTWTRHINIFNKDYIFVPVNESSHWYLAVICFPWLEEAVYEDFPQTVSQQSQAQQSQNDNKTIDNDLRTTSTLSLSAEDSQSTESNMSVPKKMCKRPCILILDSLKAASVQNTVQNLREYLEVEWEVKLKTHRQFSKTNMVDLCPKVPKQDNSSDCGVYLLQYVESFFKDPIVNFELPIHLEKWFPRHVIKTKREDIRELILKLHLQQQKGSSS

Row | SMILES | IC50 (HEK293) | IC50 [1] | IC50 [5] | IC50 [6] | IC50 (Caspase-3) | IC50 [7] | other results
1 | Nc1c(O)nc(O)nc1C(=O)OCC(=O)NCc1ccccc1 | > 67.5 µM (inactive) | > 67.5 µM (inactive) | – | – | – | – | –
2 | COc1ccc(Cl)cc1-n1c(=S)sc2c(O)nc(SCC(=O)NCCC(C)C)nc21 | – | – | – | – | – | – | IC50 (Cysteine protease ATG4B): 19.5 µM (active); IC50 (Phospholipase A2): 13.8 µM (active)
3 | COc1ccc(C(=O)c2sc3nc(-c4ccccc4)ccc3c2N)cc1OC | – | – | – | – | – | – | IC50 [2]: 1.27 µM (not active); IC50 (CHO): 27.3 µM (inactive); IC50 [3]: 12 µM (not active)
4 | Cc1oc(-c2ccccc2Cl)nc1C[S+]([O-])CC(=O)NCc1ccccc1Cl (stereo not drawn) | – | – | – | – | – | – | IC50 (Cysteine protease ATG4B): 16.8 µM (active); IC50 (Phospholipase A2): 7.47 µM (active)
5 | Clc1ccc(-c2nnc(N3CCCC3)nn2)cc1 | > 67.5 µM (inactive) | > 67.5 µM (inactive) | – | – | – | – | IC50 (Nonstructural protein 1): > 100 µM (active); EC50 (HT-1080): > 50 µM (not active); EC50 [4]: 1.39 µM (active)
6 | CCOC(=O)c1c(C)[nH]c(C(=O)OCC(=O)c2ccccc2)c1C | – | – | 24.4 µM (active) | 26.4 µM (active) | 24.3 µM (active) | 7.72 µM (active) | –
7 | O=C(Nc1nnc(CCc2ccccc2)s1)c1ccccc1F | – | – | > 100 µM (inactive) | > 100 µM (inactive) | 18.9 µM (active) | 16.8 µM (active) | –
8 | O=C1c2ccccc2C(=O)N1CCc1c[nH]c2ccccc12 | > 67.5 µM (inactive) | > 67.5 µM (inactive) | – | – | – | – | –
9 | O=C(N/N=C/C(Br)=C\c1ccccc1)c1cccs1 | – | – | > 100 µM (inactive) | > 100 µM (inactive) | 31.6 µM (active) | 5.94 µM (active) | –
